Laboratory results reported in US6706740B2, “Fungicidal heterocyclic aromatic amides and their compositions, methods of use and preparation” (Dow AgroSciences LLC, priority 1999, dated 2004).

What was measured:
[1] = tested on: Puccinia recondita—PUCCRT; assay: Brown Rust of Wheat, in vivo whole plant, 24 Hour Protectant; conditions: wheat plants sprayed at 100 ppm, inoculated after 24 hours, control of fungal infection vs untreated plants; for pest or weed control at 100 ppm: Puccinia, read-out: PUCCRT in vivo 1 Day Protectant
[2] = tested on: Magnaporthe grisea (Pyricularia oryzae—PYRIOR); assay: microbe, parasite or virus in culture; assay type: cell-based; conditions: Pyricularia oryzae, read-out: PYRIOR in vitro Growth Inhibition
[3] = tested on: Rhizoctonia solani (RHIZSO); assay: microbe, parasite or virus in culture; assay type: cell-based; conditions: Rhizoctonia solani, read-out: RHIZSO in vitro Growth Inhibition
[4] = tested on: Phytophthora infestans—PHYTIN; assay: whole plant or invertebrate; assay type: in vivo; conditions: Phytophthora, in Solanum lycopersicum, 24 h, read-out: PHYTIN in vivo 1 Day Protectant
[5] = tested on: Stagonospora nodorum (Leptosphaeria nodorum—LEPTNO); assay: In vitro fungal growth inhibition, Stagonospora nodorum (LEPTNO); assay type: cell-based; conditions: Leptosphaeria; 25 ppm in the growth medium; read-out: LEPTNO in vitro Growth Inhibition
[6] = tested on: Leptosphaeria nodorum—LEPTNO; assay: Glume Blotch of Wheat, in vivo whole plant, 24 Hour Protectant; conditions: wheat plants sprayed at 100 ppm, inoculated after 24 hours, control of fungal infection vs untreated plants; for pest or weed control at 100 ppm: Leptosphaeria, read-out: LEPTNO in vivo 1 Day Protectant
[7] = tested on: Erysiphe graminis—ERYSGT; assay: Powdery Mildew of Wheat, in vivo whole plant, 24 Hour Protectant; conditions: Erysiphe; wheat plants sprayed at 100 ppm, inoculated after 24 hours; control of fungal infection vs untreated plants; read-out: ERYSGT in vivo 1 Day Protectant
[8] = tested on: Ustilago maydis (USTIMA); assay: microbe, parasite or virus in culture; assay type: cell-based; conditions: Mycosarcoma maydis, read-out: USTIMA in vitro Growth Inhibition
[9] = tested on: Septoria tritici—SEPTTR; assay: Leaf Blotch of Wheat, in vivo whole plant, 24 Hour Protectant; conditions: Zymoseptoria tritici, 24 h, wheat plants sprayed at 100 ppm, inoculated after 24 hours; control of fungal infection vs untreated plants; read-out: SEPTTR in vivo 1 Day Protectant
[10] = tested on: Phytophthora infestans (PHYTIN); assay: microbe, parasite or virus in culture; assay type: cell-based; conditions: Phytophthora infestans, read-out: PHYTIN in vitro Growth Inhibition
[11] = tested on: Mycosphaerella graminicola (Septoria tritici—SEPTTR); assay: In vitro fungal growth inhibition, Mycosphaerella graminicola (SEPTTR); assay type: cell-based; conditions: Zymoseptoria tritici; 25 ppm in the growth medium; read-out: SEPTTR in vitro Growth Inhibition

Row | SMILES | pest or weed control at 100 ppm [1] [%] | melting point [°C] | inhibition at 25 ppm [2] [%] | inhibition at 25 ppm [3] [%] | pest or weed control at 100 ppm [4] [%] | inhibition at 25 ppm [5] [%] | pest or weed control at 100 ppm [6] [%] | pest or weed control at 100 ppm [7] [%] | inhibition at 25 ppm [8] [%] | pest or weed control at 100 ppm [9] [%] | inhibition at 25 ppm [10] [%] | inhibition at 25 ppm [11] [%] | PUCCRT in vivo 1 Day Protectant [1] | LEPTNO in vivo 1 Day Protectant [6]
1 | COc1ccnc(C(=O)Nc2ccc(Oc3ccc(C(F)(F)F)cn3)cc2)c1O [Compound 462] | 25 to 74 | 141 to 143 | > 80 | < 80 | < 25 | < 80 | 25 to 74 | < 25 | < 80 | 25 to 74 | < 80 | > 80 | – | –
2 | COc1ccnc(C(=O)Nc2ccc(Oc3cccc(C(F)(F)F)n3)cc2)c1O [Compound 463] | < 25 | 140 to 141.5 | < 80 | < 80 | < 25 | < 80 | < 25 | < 25 | < 80 | 25 to 74 | < 80 | < 80 | – | –
3 | COc1ccnc(C(=O)Nc2ccc(Oc3cc(C(F)(F)F)cc(C(F)(F)F)n3)cc2)c1O [Compound 464] | < 25 | 179 to 181 | < 80 | < 80 | < 25 | < 80 | 25 to 74 | < 25 | < 80 | 25 to 74 | < 80 | < 80 | – | –
4 | COc1ccnc(C(=O)Nc2ccc(Oc3ccnc(C(F)(F)F)c3)cc2)c1O [Compound 465] | < 25 | 160 to 162 | > 80 | < 80 | < 25 | < 80 | 25 to 74 | < 25 | < 80 | 25 to 74 | < 80 | < 80 | – | –
5 | COc1ccnc(C(=O)Nc2ccc(Oc3cc(C(F)(F)F)nc(C(F)(F)F)c3)cc2)c1O [Compound 466] | < 25 | 198 to 200 | < 80 | < 80 | < 25 | > 80 | 25 to 74 | < 25 | < 80 | 25 to 74 | < 80 | < 80 | – | –
6 | COc1ccnc(C(=O)Nc2ccc(Oc3cc(Cl)nc(C(F)(F)F)c3)cc2)c1O [Compound 467] | < 25 | 198 to 201 | < 80 | < 80 | < 25 | > 80 | 25 to 74 | 25 to 74 | < 80 | 25 to 74 | < 80 | < 80 | – | –
7 | COc1ccnc(C(=O)Nc2cccc(Oc3ccc(C(F)(F)F)cc3)n2)c1O [Compound 469] | – | 149 to 151 | > 80 | < 80 | < 25 | > 80 | 25 to 74 | < 25 | < 80 | 25 to 74 | < 80 | < 80 | + + | –
8 | COc1ccnc(C(=O)Nc2ccc(Oc3ccc(C(F)(F)F)cc3)cn2)c1O [Compound 470] | 25 to 74 | 173 to 175 | > 80 | > 80 | < 25 | > 80 | 25 to 74 | 25 to 74 | < 80 | 25 to 74 | < 80 | > 80 | – | –
9 | COc1ccnc(C(=O)Nc2ccc(Oc3cccc(C(F)(F)F)c3)nc2)c1O [Compound 471] | 25 to 74 | 193 to 195 | < 80 | < 80 | < 25 | > 80 | 25 to 74 | < 25 | < 80 | 25 to 74 | < 80 | < 80 | – | –
10 | CCOc1ccnc(C(=O)NC2CC(C)(C)CC(C)(C)C2)c1O [Compound 474] | 25 to 74 | 107 to 110 | < 80 | < 80 | < 25 | < 80 | 25 to 74 | < 25 | < 80 | < 25 | < 80 | < 80 | – | –
11 | CCOc1ccnc(C(=O)NC2COC(=O)[C@H](Cc3ccccc3)[C@@H](OC(=O)C(C)C)[C@H](C)OC2=O)c1O (stereo partly drawn) [Compound 475] | 25 to 74 | 168 to 172 | > 80 | < 80 | < 25 | > 80 | – | < 25 | < 80 | 25 to 74 | < 80 | > 80 | – | + +
12 | CCOc1ccnc(C(=O)Nc2ccc(Oc3cccc(C(F)(F)F)c3)cc2)c1O [Compound 476] | < 25 | 118 to 121 | < 80 | < 80 | < 25 | < 80 | 25 to 74 | < 25 | < 80 | < 25 | < 80 | < 80 | – | –
